Earlier results, collected in US20230330230A1, “SENSITISER FOR CANCER TREATMENT” (KORTUC INC, priority 2020, published 2023).

How the values were obtained:
[1] = test system: osteosarcoma (HS-Os-1) cell line
[2] = test system: prostate cancer (PC-3) cell line
[3] = 0.1 mM H2O2 prior to IR, without DNA double strand breaks

OO [H2O2, hydrogen peroxide]
response to H2O2 alone [1]: extreme resistance | effect of H2O2 prior to IR [1, 3]: enhanced cytotoxicity | response to H2O2 alone [2]: extreme resistance | effect of H2O2 prior to IR [2, 3]: enhanced cytotoxicity
